Experiment: in vitro
Conditions: human, hela cells, % viability

SMILES: CC1(C)C[C@H](NC(=O)C2CC2)[C@@]2(CCC(=O)N3CCCC3)CC[C@](C)(O)C[C@@H]12 [CBK289044]
- viability at 28.5 h, 10 µM: 88.1%

SMILES: COc1ccc(OC)c(-c2cc(C(=O)O)c(C)s2)c1 [CBK049922]
- viability at 28.5 h, 10 µM: 96.5%

SMILES: Cn1c(SCC(=O)n2c3c(c4ccccc42)CCCC3)nnc1-c1ccco1 [CBK267370]
- viability at 28.5 h, 10 µM: 99.2%

SMILES: Cc1ccnc(NCC2CCN(c3ccc4nnnn4n3)C2)c1 (centres unmarked) [CBK306348]
- viability at 28.5 h, 10 µM: 57.3%

SMILES: CC1CCN(S(=O)(=O)c2cc(C(=O)OCC(=O)c3ccccc3)c(Cl)cc2Cl)CC1 [CBK264470]
- viability at 28.5 h, 10 µM: 95.6%

SMILES: CC(=O)N1CCCC[C@H]2[C@H]1C[C@@H](c1ccccc1)N2C(=O)CN1CCCCCC1 [CBK286120]
- viability at 28.5 h, 10 µM: 117%

SMILES: Cc1ccc(CN2CCC(N3C(=O)NC4(CCN(CC(C)C)CC4)C3=O)CC2)cc1C [CBK285822]
- viability at 28.5 h, 10 µM: 96.9%

SMILES: OCCN1CC2(CCN(Cc3ccc4ccccc4c3)CC2)c2ccccc21 [CBK131529]
- viability at 28.5 h, 10 µM: 92.6%

SMILES: CCC(c1cccc(OC)c1)N(C)C(=O)CC1CCN(c2nc(C)cc(C)n2)CC1 (centres unmarked) [CBK286255]
- viability at 28.5 h, 10 µM: 99.7%

SMILES: CC(Oc1ccccc1F)C(=O)N1CCCCC1CN(C)C (centres unmarked) [CBK281544]
- viability at 28.5 h, 10 µM: 89.5%

SMILES: Cc1cc(=O)nc(N/C(N)=N/c2cccc([N+](=O)[O-])c2)[nH]1 [CBK264857]
- viability at 28.5 h, 10 µM: 102%

SMILES: CSc1cccc(CN(C)C(=O)c2cc(C#N)c(=O)[nH]c2C)c1 [CBK306839]
- viability at 28.5 h, 10 µM: 93%

SMILES: CC(CCc1ccccc1)N1CCN(S(=O)(=O)c2ccc3ccccc3c2)CC1 (centres unmarked) [CBK264240]
- viability at 28.5 h, 10 µM: 104%

SMILES: C/C(N)=C(/C#N)C(NC(=O)C1CCCCC1)(C(F)(F)F)C(F)(F)F [CBK267902]
- viability at 28.5 h, 10 µM: 91.1%

SMILES: COc1ccc2cc(OCCO)ccc2c1 [CBK176054]
- viability at 28.5 h, 10 µM: 63.6%

SMILES: COc1ccc(-n2cnc3ccccc3c2=O)cc1 [CBK288145]
- viability at 28.5 h, 10 µM: 94.4%

SMILES: Cc1cc(=O)oc2cc(Sc3sccc3[N+](=O)[O-])ccc12 [CBK002936]
- viability at 28.5 h, 10 µM: 90.5%

SMILES: CCOC(=O)c1sc(NC(=O)CCNC(=O)c2ccccc2C(=O)O)c(C#N)c1C [CBK295152]
- viability at 28.5 h, 10 µM: 96.1%

SMILES: CC(C)C(N)c1nnc(SCc2ccccc2Cl)o1 (centres unmarked) [CBK270121C]
- viability at 28.5 h, 10 µM: 92%

SMILES: COc1ccc2[nH]cc(C(C(=O)O)N3CCN(Cc4ccccn4)CC3)c2c1 (centres unmarked) [CBK286846]
- viability at 28.5 h, 10 µM: 80.5%

SMILES: O=C(NCc1ccco1)/C(=C\c1ccccc1)NC(=O)c1ccc(Br)cc1 [CBK263701]
- viability at 28.5 h, 10 µM: 87.7%

SMILES: O=C(CSc1ccc2nnc(-c3ccccn3)n2n1)N1CCCCC1 [CBK287621]
- viability at 28.5 h, 10 µM: 101%

SMILES: NC(=O)c1cccc(COc2ccccc2C(=O)Nc2ccc(-c3ccsc3)cc2C(=O)O)c1 [CBK001718]
- viability at 28.5 h, 10 µM: 82.6%

SMILES: COCCn1cc(C(=O)N2CCN3CCCCC3C2)c2ccccc21 (centres unmarked) [CBK305287]
- viability at 28.5 h, 10 µM: 107%

SMILES: CCN1CCN(C(=O)CN(C)S(=O)(=O)c2ccc(Cl)cc2)CC1 [CBK267218]
- viability at 28.5 h, 10 µM: 100%

SMILES: C1=Nn2c(nnc2-c2ccncc2)SC(c2ccccc2)=C1 [CBK288535]
- viability at 28.5 h, 10 µM: 101%

SMILES: CCN1C(=O)C2(CC(=O)N(CCCCC(C)C)C2=O)c2cc(C)ccc21 (centres unmarked) [CBK075173]
- viability at 28.5 h, 10 µM: 103%

SMILES: CN(C)c1cccc(Nc2cc(-c3ccco3)ncn2)c1 [CBK091014]
- viability at 28.5 h, 10 µM: 87.5%

SMILES: O=C(O)C1CCCN(C(=O)CCc2c[nH]c3ccccc23)C1 (centres unmarked) [CBK286925]
- viability at 28.5 h, 10 µM: 88.6%

SMILES: Cc1ccc(S(=O)(=O)Nc2cccc3ccccc23)c([N+](=O)[O-])c1 [CBK267381]
- viability at 28.5 h, 10 µM: 71.9%

SMILES: Cc1nc2ccc(C(=O)NCCN3CCc4ccccc43)cc2[nH]1 [CBK283280]
- viability at 28.5 h, 10 µM: 94.2%

SMILES: Cc1ccccc1-c1ccccc1CC1(C(N)=O)CCN(C(=O)CC2CCCCC2)CC1 [CBK285723]
- viability at 28.5 h, 10 µM: 103%

SMILES: C[C@@H]1C(=O)Nc2ccc(F)cc2N1C(=O)N1CCCC1 [CBK007936]
- viability at 28.5 h, 10 µM: 96%

SMILES: CC1(C)CC(NC(=O)c2cc([N+](=O)[O-])ccc2Cl)CC(C)(C)N1 [CBK263948]
- viability at 28.5 h, 10 µM: 93.7%

SMILES: CCn1c(CNC(=O)c2cn3ccc(C)cc3n2)nc2ccccc21 [CBK281394]
- viability at 28.5 h, 10 µM: 91.2%

— article PMC12040169 (PLOS Biology, 2025)
